Key:
[1] = Spectroscopic absorbance properties; type: physicochemical
From the text: (§1) The absorption bands of each photosensitiser are relatively insensitive to solvent changes with solutions in water/Cremophor resulting in a further bathochromic shift of ˜10 nm (Table 1). Excitation of chloroform solutions of the 2a and 4a at 635 nm gave a fluorescence band at 672 and 673 nm respectively (FIG. 2, Table 2). […] The reduction in fluorescence quantum yield in the series would imply more efficient population of the triplet excited state which would benefit singlet oxygen production. The ability of 2 and 4 to produce singlet oxygen would be a prerequisite to them being potential PDT agents.

[2] = Fluorescence emission and fluorescence quantum yield; type: physicochemical
From the text: as §1

MRC5 cells = assay: Fluorescence microscopy uptake study in MRC5 cells; type: cell-based; details: 10^−5 M
Description: Cells were seeded at a density of 30,000 cells/well in chamber slides and allowed to adhere for 24 hr. A compound of the present invention (10^−5 M) was then added to each chamber and incubated at 37° C. in the dark over time, for example, 15 min, 30 min, 1 hr, 3 hr and 6 hr. The medium was removed after the specified time and the cells were washed 4 times with medium free of that compound of the invention. The cells were then fixed with 3.7% (v/v) formaldehyde for 15 min at 37° C. The fixative solution was removed and the cells were washed twice with sterile PBS. DAPI nuclear stain (1/1000) was then incubated with the cells for 10 is min at 37° C., following which the cells were washed twice with PBS. Cells were then mounted in Vectashield (Trade Mark) mounting medium.
LabWorks (Bioimaging Systems) was used to calculate the average fluorescence intensity per cell for each of the different time points used in the uptake and efflux studies for the compounds of the present invention. […] The DAPI filter was used to accurately count the number of cells in each field of view and the rhodamine filter was used to quantify the fluorescence of the compounds of the present invention.
Using the assay method set out above under the heading “Fluorescence Microscopy”, the uptake of 2a was examined for HeLa and MRC5 […] cell lines and the data are illustrated in FIGS. 6a and 6b, respectively. […]

HeLa cells = assay: Fluorescence microscopy cellular localisation (DAPI dual staining); type: cell-based; details: 10^−5 M, DAPI nuclear stain
Description: Cells were seeded at a density of 30,000 cells/well in chamber slides and allowed to adhere for 24 hr. 2a (10^−5 M) was then added to each chamber and incubated at 37° C. in the dark for either 1 hr or 3 hrs at 37° C.—a one hour incubation was used for FIGS. 4 and 5. The medium was removed and the cells were washed 4 times with drug-free (2a free) medium. The cells were then fixed with 3.7% (v/v) formaldehyde for 15 min at 37° C. The fixative solution was removed and the cells were washed twice with sterile PBS. DAPI (4′,6-diamidino-2-phenylindole) nuclear stain (1/1000) was then incubated with the cells for 10 min at 37° C., following which the cells were washed twice with PBS. Cells were then mounted in Vectashield (Trade Mark) mounting medium.
The cells were viewed using an Axio Zeiss fluorescent microscope. The cells were examined at the different time points using two different filters. The rhodamine filter, which is specific for the wavelength region in which 2a fluoresces, was used to visualise 2a. The DAPI filter was employed to examine the nuclei of the cells.
Cancer cellular uptake of a photosensitiser is a prerequisite for it to act as a PDT agent. Delivery of our proposed PDT agents required formulation of the sensitisers in order to impart water solubility. […]

HeLa cancer cells = assay: Preliminary light toxicity assay; type: cell-based; details: 24 hours exposure, 15 minutes irradiation >570 nm
Description: HeLa cancer calls were exposed to 2a in varying concentrations for 24 hours. 2a laden medium was removed and replaced with fresh medium. Cells were irradiated at constant temperature of 37° C. for 15 minutes with light from a 100 W or 500 W halogen lamp passed through a red glass and water filter barrier, thereby ensuring cells are irradiated with light of more than 570 nm. Irradiated cells were incubated for a further 24 hrs at 37° C. MT cell viability assay was performed.
The dark toxicity effect may be caused by the micellar delivery vehicle itself.

[3] = Water/Cremophor (100:1), room temperature

F[B-]1(F)n2c(-c3ccccc3)cc(-c3ccccc3)c2N=C2C(c3ccccc3)=CC(c3ccccc3)=[N+]21 [Compound 2a]
fwhm (full width at half maximum) ([1]; CHCl3, room temperature): 49 nm
ε (molar extinction coefficient) ([1]; CHCl3, room temperature): 79,000 M^−1cm^−1
λmax (absorbance) ([1]; CHCl3, room temperature): 650 nm
fwhm (full width at half maximum) [1, 3]: 53 nm
λmax (absorbance) [1, 3]: 658 nm
λ em (fluorescence band) ([2]; CHCl3, room temperature, excitation at 635 nm): 672 nm
λ em (fluorescence band) [2, 3]: 683 nm
Φf (fluorescence quantum yield) ([2]; relative to magnesium tetra-tert-butylphthalocyanine in CHCl3, room temperature): 0.34
time of maximum uptake (MRC5 cells): 200 min
cellular localisation (HeLa cells): primarily at the endoplasmic reticulum and not in the nucleus
dose response (HeLa cancer cells; 100 W light source, compared with 500 W): poorer response
EC50 (HeLa cancer cells; 500 W light source): 1000 nM

— US7220732B2, “Compounds useful as photodynamic therapeutic agents” (priority 2002, dated 2007)
